Source: PMC5059851, “Inhibition of Hedgehog-dependent tumors and cancer stem cells by a newly identified naturally occurring chemotype” (Cell Death & Disease, 2016)
Entries after “also recorded” stand apart in the source; their conditions may differ.

Columns and labels:
human Smo D473H = molecular target: T1, human Smo D473H (Homo sapiens, UniProt Q99835, D473H); test: Bodipy-Cyclopamine (BC) binding assay, HEK293T cells transfected with human Smo D473H
T1 construct: Myc-DDK; expressed in transfected cells; host or cells: HEK293T
T1 sequence (Q99835 28-787 D473H): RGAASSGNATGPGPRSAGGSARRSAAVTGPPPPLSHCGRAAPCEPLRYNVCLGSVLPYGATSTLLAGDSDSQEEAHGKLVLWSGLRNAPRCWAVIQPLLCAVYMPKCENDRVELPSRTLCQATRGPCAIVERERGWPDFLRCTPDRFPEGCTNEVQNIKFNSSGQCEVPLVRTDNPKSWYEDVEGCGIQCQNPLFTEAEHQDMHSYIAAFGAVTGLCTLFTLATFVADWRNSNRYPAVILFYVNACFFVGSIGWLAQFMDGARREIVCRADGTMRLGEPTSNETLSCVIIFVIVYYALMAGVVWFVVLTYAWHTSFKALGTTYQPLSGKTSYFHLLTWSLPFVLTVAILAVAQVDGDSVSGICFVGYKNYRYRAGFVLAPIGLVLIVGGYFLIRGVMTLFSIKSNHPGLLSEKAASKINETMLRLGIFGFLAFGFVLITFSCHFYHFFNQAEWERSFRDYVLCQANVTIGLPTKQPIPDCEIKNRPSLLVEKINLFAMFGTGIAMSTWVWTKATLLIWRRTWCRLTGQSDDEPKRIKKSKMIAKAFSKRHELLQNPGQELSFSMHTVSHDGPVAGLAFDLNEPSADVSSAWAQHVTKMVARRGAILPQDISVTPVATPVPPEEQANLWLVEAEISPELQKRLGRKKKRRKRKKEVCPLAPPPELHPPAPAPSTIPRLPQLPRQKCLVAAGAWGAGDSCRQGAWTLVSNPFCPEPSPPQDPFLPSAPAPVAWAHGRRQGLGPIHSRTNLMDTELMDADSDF
Experimental: (§1) Cells were washed in PBS supplemented with 0.5% fetal bovine serum, fixed in 4% paraformaldehyde in phosphate-buffered saline (PBS) for 10 min, and incubated for 2 h at 37 °C both in the same medium supplemented with Bodipy-Cyclopamine (5 nM) and the studied compounds. The cells were permeabilized with Triton X100 (Sigma) 0.2%. Dako Fluorescent mounting (Dako, Carpinteria, CA, USA) was used as mounting medium and Hoechst reagent for staining of the cell nuclei. Bodipy (green) and Hoechst (blue) signals were analyzed in three to four representative fields per coverslip (× 20 magnification, 1000 cells/field). Data were expressed as percentage of BC incorporation observed with BC alone.[95]

ASZ001 BCC allografts = test: ASZ001 BCC allograft in NOD/SCID mice; assay type: in vivo, mouse; conditions: 50 mg/kg s.c. every second day, versus vehicle
murine Smo D477G = molecular target: T2, murine Smo D477G (Mus musculus, UniProt P56726, D477G); test: Bodipy-Cyclopamine (BC) binding assay, HEK293T cells transfected with mouse Smo D477G
T2 construct: Flag; expressed in transfected cells; host or cells: HEK293T
T2 sequence (P56726 33-793 D477G): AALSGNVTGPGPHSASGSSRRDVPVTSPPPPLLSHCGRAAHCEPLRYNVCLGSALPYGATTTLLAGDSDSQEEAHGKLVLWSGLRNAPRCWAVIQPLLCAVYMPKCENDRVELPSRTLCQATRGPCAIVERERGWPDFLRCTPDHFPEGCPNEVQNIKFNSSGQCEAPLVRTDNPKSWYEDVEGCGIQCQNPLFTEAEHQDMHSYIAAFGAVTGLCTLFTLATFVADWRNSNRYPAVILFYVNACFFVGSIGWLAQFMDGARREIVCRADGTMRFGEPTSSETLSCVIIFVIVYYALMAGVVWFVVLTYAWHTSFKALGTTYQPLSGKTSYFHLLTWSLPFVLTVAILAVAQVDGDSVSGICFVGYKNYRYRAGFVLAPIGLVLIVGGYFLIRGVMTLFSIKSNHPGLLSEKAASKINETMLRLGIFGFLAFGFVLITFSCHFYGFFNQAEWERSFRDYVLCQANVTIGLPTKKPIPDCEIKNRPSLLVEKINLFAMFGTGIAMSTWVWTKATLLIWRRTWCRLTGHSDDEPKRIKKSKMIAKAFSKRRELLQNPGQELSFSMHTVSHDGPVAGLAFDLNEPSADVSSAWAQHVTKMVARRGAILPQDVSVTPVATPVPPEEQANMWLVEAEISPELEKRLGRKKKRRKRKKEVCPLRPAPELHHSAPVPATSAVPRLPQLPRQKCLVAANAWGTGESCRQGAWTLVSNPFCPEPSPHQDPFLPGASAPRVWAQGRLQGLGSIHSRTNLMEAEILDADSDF
Experimental: as §1
(§2) BC binding (green) is visualized using fluorescence microscopy in a representative field (a). […] Quantitative data are the average BC intensity from five independent fluorescence microscopy images.

AP1/Jun pathway = test: AP1/Jun luciferase reporter assay (MMP1-luciferase reporter and c-Jun) in MEFs WT; assay type: cell-based, mouse; conditions: increasing concentrations, 24 h
Experimental: Figure 2 Compound 12 inhibits Hh signaling without affecting AP1/Jun and WNT/β-Catenin pathways. (a) The graphs show the Hh target genes expression levels in Ptch1^−/− MEFs treated for 48 h with 12 or DMSO as control. mRNA levels were determined by quantitative real-time PCR (qRT-PCR) normalized to endogenous control (β2-microglobulin and HPRT). Pfkfb3 gene was used as negative control. *P<0.05 versus CTR. (b and c) AP1/Jun and WNT/β-Catenin pathways activity were assayed in MEFs WT transfected with MMP1-luciferase reporter and c-Jun (b) or Top Flash-luciferase reporter and β-Catenin (c), respectively, in the presence or absence of increasing concentrations of compound 12. Treatment time was 24 h, and normalization was against Renilla luciferase.

Gli1 mRNA [1] = test: Gli1 mRNA (qRT-PCR) in 22Rv1 cells; assay type: cell-based, human; conditions: after treatment
Experimental: After the indicated times, a trypan blue count was performed to determine the growth rate. […] Results were normalized to endogenous control (β-actin and HPRT).
(§3) Total RNA was isolated with Trizol (Invitrogen/Life Technologies, Carlsbad, CA, USA) and reverse transcribed with SensiFAST cDNA Synthesis Kit (Bioline Reagents Limited, London, UK). Quantitative real-time PCR (Q-PCR) analysis of Gli1, Gli2, Ptch1, Bmp2, Pfkfb3, CycD1, CycD2, Pcna, Oct4, Nanog, β-2 microglobulin, β-actin and HPRT mRNA expression was performed on each cDNA sample using the VIIA7 Real Time PCR System employing Assay-on-Demand Reagents (Life Technologies).

[2] = tested on: murine Ptch1^+/− MB stem-like cells; test: MB stem cells neurosphere-forming assay; assay type: cell-based, mouse; conditions: 7 days of treatment, increasing concentrations
Experimental: Figure 5 Compound 12 inhibition of Hh-dependent MB tumor cell growth. […] (a and b) After the indicated times, a trypan blue count was performed to determine the growth rate of viable cells. (c) Gli1 mRNA expression levels were determined by qRT-PCR normalized to endogenous control (β2-microglobulin and HPRT). (d–f) Compound 12 inhibits MB-SCs self-renewal. (d) Suspension of single MB-SCs isolated from Ptch1^+/− mice were cultured in stem cell medium to allow the formation of primary neurospheres. Primary neurospheres were dissociated and treated with increasing concentrations of compound 12, Cyclopamine or DMSO only. After 7 days of treatment, the number of secondary neurospheres derived from a known number of single cells was counted. The self-renewal MB-SCs' capability is expressed as percentage of neurosphere-forming cells. (e) Representative bright-field images of tumor neurospheres after compound 12 or Cyclopamine treatment are also shown. (f) MB-SCs isolated from Ptch1^+/− mice MBs were treated for 48 h with compound 12 or DMSO only. qRT-PCR analysis show Hh, proliferation and stemness target mRNA. For qRT-PCR, results were normalized to endogenous control (β2-microglobulin and HPRT). […]
Cell proliferation was evaluated by BrdU detection (Roche, Welwyn Garden City, UK). […] At least 500 nuclei were counted in triplicate, and the number of BrdU-positive nuclei was recorded. […]

murine Smo WT = molecular target: T3, murine Smo WT (Mus musculus, UniProt P56726); test: Bodipy-Cyclopamine (BC) binding assay, HEK293T cells transfected with mouse Smo WT
T3 construct: Flag; expressed in transfected cells; host or cells: HEK293T
T3 sequence (P56726 33-793): as the sequence (P56726 33-793 D477G) above, with G445D counted along it
Experimental: as §1, §2

Gli1 mRNA [3] = test: Gli1 mRNA (qRT-PCR) in ASZ001 BCC cells; assay type: cell-based, mouse; conditions: after drug treatment
Experimental: After the indicated times, a trypan blue count was performed to determine the growth rate.
as §3

[4] = BC (5 nM) displacement, transiently transfected 293T cells
[5] = HEK293T cells, various concentrations

- IC50 (human Smo D473H; [4]): 22.7 µM
- activity on the D473H drug-resistant Smo mutant (human Smo D473H; BC displacement assay): active
- Fold shift human Smo (human Smo D473H; IC50 Smo D473H / IC50 Smo WT): 0.9257
- loss of affinity for the resistant Smo mutants in binding assay (human Smo D473H; resistant Smo mutants versus WT): conserved the same affinity
- IC50 (murine Smo D477G; [4]): 56.7 µM
- inhibition of BC binding to mouse Smo D477G mutant (murine Smo D477G; [5]): significantly inhibited BC binding
- Fold shift murine Smo (murine Smo D477G; IC50 Smo D477G / IC50 Smo WT): 1.243
- IC50 (murine Smo WT; [4]): 45.6 µM
- inhibition of BC binding to murine Smo WT (murine Smo WT; [5]): significantly inhibited BC binding
Structure (SMILES): COc1ccc(C=CC(=O)c2cc(OC)c(OC)cc2OC)cc1OC [Compound 12, 3-(3,4-dimethoxy-phenyl)-1-(2,4,5-trimethoxy-phenyl)-2-propen-1-one]
- tumor cell growth (tumor volume) in BCC allograft (ASZ001 BCC allografts; 18 days): reduction of tumor cell growth
- percentage of Ki67 labeling in allograft tumors (ASZ001 BCC allografts): decreased percentage of Ki67 labeling
- luciferase activity driven by Jun/AP1 signaling (AP1/Jun pathway): without affecting luciferase activity; also recorded: inactive
- Gli1 mRNA levels in 22Rv1 cells (Gli1 mRNA [1]): significant decrease of Gli1 mRNA levels
- clonogenic self-renewal ability (neurosphere formation) [2]: suppressed
- Gli1 mRNA levels in ASZ001 BCC cells (Gli1 mRNA [3]): decrease of Gli1 mRNA levels
